Reference: US11744830B2, “Ameliorative agent for cytokine release syndrome and so on” (TORII PHARMACEUTICAL CO., LTD., priority 2018, dated 2023)
Structures can show the parent of a compound that is named as a salt.

How the values were obtained:
[1] = tested on: IL-6 production from CD14^+ cells; assay: LPS stimulation-induced IL-6 production in CD14^+ cells; format: cell-based, human; settings: for IC50: Homo sapiens, 72 h, CD14^+ cells, LPS 3 ng/mL, 3 days
Description: (§1) Cryopreserved PBMCs were quickly thawed in a 37° C. thermostat and added to a tube containing medium. After centrifugation (at room temperature at 300 g for 10 minutes) to remove the supernatant, the cells were suspended again in the medium, followed by counting the number of viable cells. The cell suspension was centrifuged (at room temperature at 300 g for 10 minutes) to remove the supernatant, followed by addition of MACS Buffer to suspend the cells, to which Human CD14 MicroBeads were further added. After being allowed to stand on ice for 15 minutes, the cell suspension was diluted with MACS Buffer and centrifuged (at room temperature at 300 g for 10 minutes) to remove the supernatant.
(§2) MACS Buffer was added to the tube, and the cells were suspended and then applied to a separatory column to separate CD14^+ cells. The CD14^+ cell fraction was diluted with the medium and then centrifuged (at room temperature at 300 g for 10 minutes). The supernatant was removed and the cells were suspended in the medium (1 mL), followed by counting the number of viable cells. The cell suspension was adjusted with the medium to 2.4×10^5 or 3×10^5 cells/mL and seeded in a 96-well plate (2.4×10^4 cells/well), which was then allowed to stand in a CO2 incubator for 1 to 2 hours.
The collected culture supernatants were quantified for IL-6 using Human IL-6 DuoSet ELISA.

[2] = tested on: MCP-1 production from CD14^+ cells; assay: LPS stimulation-induced MCP-1 production in CD14^+ cells; format: cell-based; settings: Homo sapiens, 72 h, LPS 3 ng/mL, 3 days
Description: as §1, §2
The collected culture supernatants were quantified for MCP-1 using Human CCL2/MCP-1 DuoSet ELISA.

[3] = tested on: TNF-α production from CD14^+ cells; assay: LPS stimulation-induced TNF-α production in CD14^+ cells; format: cell-based, human; settings: for IC50: LPS 3 ng/mL, 3 days
Description: as §1, §2
The culture supernatants collected in 1.2.2 were quantified for TNF-α using Human TNF-α DuoSet ELISA.

[4] = tested on: IL-1β production in CD14^+ cells; assay: LPS stimulation-induced IL-1β production in CD14^+ cells; format: cell-based, human; settings: for IC50: Homo sapiens, 72 h, LPS 500 ng/mL, 3 days
Description: as §1, with “supernatant. MACS Buffer was added to the tube, and the cells were suspended and then applied to a separatory column to separate CD14^+ cells. The CD14^+ cell fraction was diluted with the medium and then centrifuged (at room temperature at 300 g for 10 minutes). The supernatant was removed and the cells were suspended in the medium (1 mL), followed by counting the number of viable cells. The cell suspension was adjusted with the medium to 2.4×10^5 or 3×10^5 cells/mL and seeded in a 96-well plate (2.4×10^4 cells/well), which was then allowed to stand in a CO2 incubator for 1 to 2 hours.” for “supernatant.”
The culture supernatants collected in 1.2.10 were quantified for IL-1β using Human IL-1β DuoSet ELISA.

[5] = tested on: IL-6 production from PBMCs; assay: T-cell stimulation bead- and LPS stimulation-induced CRS toxicity evaluation system in PBMCs: IL-6; format: cell-based, human; settings: CD3/CD28 + LPS; for IC50: Homo sapiens, PBMC, 72 h, 3 days
Description: Cryopreserved PBMCs were quickly thawed in a 37° C. thermostat and added to a tube containing medium. After centrifugation (at room temperature at 300 g for 10 minutes) to remove the supernatant, the cells were suspended again in the medium (10 mL), followed by counting the number of viable cells. After centrifugation (at room temperature at 300 g for 10 minutes) to remove the supernatant, the medium was added to suspend the cells at 1×10^6 cells/mL. This cell suspension was seeded in a 96-well plate in a volume of 100 μl/well (1×10^5 cells/well) and allowed to stand in a CO2 incubator for 1 to 2 hours.
The cells were cultured in a CO2 incubator for 3 days to collect the culture supernatants.
The collected culture supernatants were quantified for IFN-γ and IL-6 using Human IFN-γ DuoSet ELISA and Human IL-6 DuoSet ELISA.

[6] = tested on: VEGF production from macrophages; assay: LPS stimulation-induced VEGF production in macrophages; format: cell-based, human
Description: CD14^+ cells were cultured in 20 ng/mL M-CSF-containing RPMI medium at 37° C. for 5 days to induce differentiation into macrophages (during which the medium was replaced once every two days with fresh 20 ng/mL M-CSF-containing RPMI medium). […] The macrophages were then stimulated with LPS (final concentration: 100 ng/mL) or RPMI medium alone at 37° C. for 3 days, followed by collecting the culture supernatants. The collected culture supernatants were quantified for VEGF using Human VEGF DuoSet ELISA.

[7] = tested on: IL-6 production; assay: CRS toxicity evaluation system using CAR-T cells: IL-6; format: cell-based, human; settings: for IC50: Homo sapiens, Monocyte, CAR-T cells, target cells and monocytes, 72 hours
Description: (§3) The supernatants were collected at 72 hours after the initiation of culture, and various cytokines in each supernatant were measured by FACS multiplex assay.

[8] = tested on: IL-1β production; assay: CRS toxicity evaluation system using CAR-T cells: IL-1β; format: cell-based, human; settings: for IC50: Homo sapiens, Monocyte, CAR-T cells, target cells and monocytes, 72 hours
Description: as §3

[9] = tested on: IL-18 production; assay: CRS toxicity evaluation system using CAR-T cells: IL-18; format: cell-based; settings: Homo sapiens, Monocyte, target cells and monocytes, 72 hours, reference data because of low production
Description: as §3

[10] = tested on: IL-6, IL-8 and other inflammatory cytokines; settings: phase I study, LPS loading; cited from earlier work
[11] = tested on: acute myeloid leukemia (AML) cell lines; settings: in vitro system; cited from earlier work
[12] = CRS toxicity evaluation system using CAR-T cells

| Structure (SMILES) | Ratio (IL-6/IFN-γ) of IC50 values ([1]; CD14^+ cells (IL-6) / CD8^+ T cells (IFN-γ)) | IC50 [1] [µM] | IC50 [2] [µM] | IC50 ([3]; Homo sapiens, 72 h) [µM] | suppressive effect on TNF-α production ([3]; LPS) | IC50 [4] [µM] | Ratio (IL-6/IFN-γ) of IC50 values [5] | IC50 [5] [µM] | IC50 ([6]; Homo sapiens, Macrophage, 72 h, read-out: IC50 value, VEGF) [µM] | effect on VEGF production from macrophages ([6]; Macrophages, LPS) | IC50 [7] [µM] | IC50 [8] [µM] | IC50 [9] [µM] | elevation of C-reactive protein (CRP) levels [10] | production of IL-6, IL-8 and other inflammatory cytokines [10] | autoproliferation of AML cell lines [11] | IC50 [3] [µM] | suppressive effect on IL-1β production ([4]; LPS) | suppressive effect on IL-6 production [7, 12] | suppressive effect on IL-1β [8, 12] |
| --- | --- | --- | --- | --- | --- | --- | --- | --- | --- | --- | --- | --- | --- | --- | --- | --- | --- | --- | --- | --- |
| CCOC(=O)[C@H](Cc1ccccc1)NC(=O)c1cc(Cl)c(OCCN2CCN(C)CC2)c(Cl)c1O [JTE-607, (−)-ethyl N-{3,5-dichloro-2-hydroxy-4-[2-(4-methylpiperazin-1-yl)ethoxy]benzoyl}-L-phenylalaninate dihydrochloride] | <0.18 | 0.0529 | 0.0213 | > 0.3 | suppressive effect in a manner dependent on its concentration added | 0.00345 | 0.81 | 0.0404 | 0.204 | tended to suppress VEGF production from macrophages, but its effect was marginal | 0.188 | 0.359 | 0.871 | suppress the elevation of C-reactive protein (CRP) levels in a dose-dependent manner | suppress the production of IL-6, IL-8 and other inflammatory cytokines | selectively suppress the autoproliferation |  |  |  |  |
| C[C@]12C=CC(=O)C=C1CC[C@@H]1[C@@H]2[C@@H](O)C[C@@]2(C)[C@H]1CC[C@]2(O)C(=O)CO [PSL, Prednisolone] |  | 0.151 | 6.6 | 0.0417 |  | > 30 |  | 3.57 |  |  | > 10 | > 100 | > 100 |  |  |  | 0.042 | no suppressive effect | no suppressive effect | no suppressive effect |
